We go through 1 compound from US6913768B2, “Sustained release delivery of amphetamine salts” (Shire Laboratories, Inc., priority 2002, dated 2005).

The nature of the data set: Single-dose mean plasma concentration profile of […] XR 20 mg (FIG. 1). In kind it is in vivo. The following applies: human, oral, […] XR 20 mg single dose, mean over about 20 patients. The protocol:
See, e.g., Fundamentals of Clinical Pharmacokinetics. J. G. Wagner, Drug Intelligence Publications, Inc., Hamilton, Ill., 1975; Guidance for Industry, Bioavailability and Bioequivalence Studies for Orally Administered Drug Products-General Considerations, FDA, CDER. October 2000.
Individual patients were treated with […] XR®, 20 mg. Subjects received either one single dose administered with food or one single dose administered following a 10-hour overnight fast through continued fast 3.5 hours post dosing. The mean plasma concentration profile of FIG. 1 was obtained from averaging such individuals' curves.

A word on the Cmax: it is the peak of the concentration-time curve. Usually Tmax stands for the time at which the peak concentration occurs. What is called AUC is concentration integrated over time. Turning to `C[C@H](N)Cc1ccccc1` [d-amphetamine], the Cmax worked out at 28 ng/mL and the Tmax came out at 7.1 h. Moreover, the AUC (read-out: AUC (time zero to infinity)) was 557 ng·h/mL.
